Test results published in US10829446B2, “Aryl sulfonohydrazides” (MONASH UNIVERSITY, priority 2015, dated 2020).

Key:
Format in all cases: cell-based
Wild type pre B cells [1] = test: Bioassay 7: pre-B cell number dose response, wild type; conditions: B-cell, 96 h; wild type Pre B cells; 4 days
Experimental: (§1) Pre B cells are isolated from bone marrow according to the criterion: cell surface expression of B220, CD19, but not cKit or IgM. Pre-B cells are cultured on OP9 cells with IL7 in the presence of compounds at concentrations from 0.01 μM to 20 μM in vitro for 4 days. Cell number is then enumerated and an IC50 is calculated.

wild type pro-B cells = test: Bioassay 5: pro-B cell colony formation in methylcellulose, wild type
Experimental: (§2) Pro-B cells are purified by positive selection using antiCD19-magnetic beads and fluorescence activated cell sorting using the criterion: cell surface expression of B220, CD19 and cKit but not IgM. After purification, 25,000 pro-B cells are seeded onto 3.5 cm culture dishes plate containing methylcellulose (MethoCult M3630, STEM CELL technologies) for 7 days. After 7 days culture, colonies in which there were more than 50 cells are counted. Subsequently, 190,000 pro-B cells are replated into methylcellulose for another 7 days of culture, followed by enumeration.

[2] = test system: Eμ-Myc pre-leukemia pre-B cells; test: Bioassay 6: proliferation curves of pre-B cells on OP9 feeder layer, Eμ-Myc
Text: (§3) Pre B cells are isolated from bone marrow according to the criterion: cell surface expression of B220, CD19, but not cKit or IgM. Proliferation curves of wild type pre-B cells and Ep-Myc pre-leukemia pre B cells are generated by counting cells cultured on OP9 cell feeder layer in the presence of the growth factor IL-7. Media is changed every two days and cells are passaged every 4 days.

[3] = test system: Eμ-Myc pre-leukemia pre B cells; test: Bioassay 7: pre-B cell number dose response, Eμ-Myc
Experimental: as §1

wild type pre-B cells = test: Bioassay 9: cell cycle analysis (DNA content and BrdU)
Experimental: Pre B cells are isolated from bone marrow according to the criterion: cell surface expression of B220, CD19, but not cKit or IgM. Pre-B cells are cultured on OP9 cells with IL7 in the presence of compounds at various concentrations. The stages of the cell cycle in pre-B cells with and without treatment is analysed using flow cytometry to assay, using a stain for DNA content combined with BrdU to determine the proportion of cells in S phase.

[4] = test system: Eμ-Myc pre-leukemia pro-B cells; test: Bioassay 5: pro-B cell colony formation in methylcellulose, Eμ-Myc
Experimental: as §2

Wild type pre B cells [5] = test: Bioassay 6: proliferation curves of pre-B cells on OP9 feeder layer, wild type
Text: as §3

[6] = test system: mouse embryonic fibroblasts transfected with control retroviral vector pBABE; test: Bioassay 4: cumulative cell counts, control vector pBABE; conditions: 5 μm
Experimental: (§4) To test if cells expressing mutant forms of RAS sensitized to senescence induction, MOZ inhibitors were combined with the ectopic expression of KRASG12V. Cells are plated in triplicate cultures at 10,204 cells/cm2 then transfected with control retroviral vectors pBABE or pBABE containing a mutant KrasG12V expression cassette. Cultures were maintained at 3% O2. Selection for transfected cells is achieved using puromycin. Compounds are tested at 0 μM 1 μM, 2.5 μM, and 5 μM. After 48 hours, cells are passaged and counted, then replated at 10,204/cm2. This procedure is continued for 336 hours. The total number of cells produced at each passage is then calculated and compared between treatment groups. Cellular senescence is determined by cell cycle arrest. Comparisons are between cells treated with vehicle only expressing the control vector, cells treated with 5 μM expressing the control vector (concentration shown in bioassay 1 to produce cellular senescence) and cells treated with 0 uM 1 μM, 2.5 μM, and 5 μM expressing the KrasV12 expressing vector vector

[7] = test system: mouse embryonic fibroblasts expressing KrasG12V; test: Bioassay 4: cumulative cell counts, KrasG12V expression; conditions: for Cumulative Cell Counts: KrasG12V
Experimental: as §4

Cdc6 mRNA = test: Bioassay 2: RT-qPCR of MOZ target genes in mouse embryonic fibroblasts; conditions: 5 μM
Experimental: Mouse embryonic fibroblasts are isolated from wild type or Moz heterozygous animals and cultured at 3% oxygen/5% carbon dioxide/92% nitrogen. Cells are plated at a density of 1,020 cells/cm^2 or 2,040 cells/cm^2 or 10,204 cells/cm^2. A reference value for MOZ inhibition is generated through comparison with cells with a complete null mutation of MOZ. The absence of a functional Moz gene leads to senescence in 7-14 days at 3% oxygen.
Cells are plated in triplicate at 2,040 cells/cm^2 in the presence of a test compound. Compounds are tested at 500 nM, 1 μM, 2 μM, 5 μM, 10 μM and 20 μM. Control compounds include those that have a similar structure but show no activity in biochemical assays. […] RT-qPCR is used to assay the levels of MOZ target genes Ink4a, ink4b, Arf, Cdc6, Cdca8, Cdca2, E2f2, Ezh2, Skp2 and Melk.

Cc1cc(-c2ccccc2)cc(C(=O)NNS(=O)(=O)c2ccccc2)c1F [Compound 36]
IC50 (Wild type pre B cells [1]): 0.364 µM | colony number (wild type pro-B cells; 1 μM, wild type pro-B cells, primary colonies): 161.25 | colony number, secondary colony formation (wild type pro-B cells; 1 μM, wild type pro-B cells, secondary colony formation): 12.25 | colony formation (wild type pro-B cells; in words, compared to vehicle): greatly inhibits colony formation | cumulative average cell number ([2]; 0.2 μM, Day 4): 373055 | cumulative average cell number ([2]; 0.2 μM, Day 8): 1110631 | cumulative average cell number ([2]; 0.2 μM, Day 12): 464403 | cumulative average cell number ([2]; 0.2 μM, Day 16): 81501 | cumulative average cell number ([2]; 1 μM, Day 4): 172777 | cumulative average cell number ([2]; 1 μM, Day 8): 135815 | cumulative average cell number ([2]; 1 μM, Day 12): 29983 | cumulative average cell number ([2]; 1 μM, Day 16): 0 | cumulative average cell number ([2]; 5 μM, Day 4): 79444 | cumulative average cell number ([2]; 5 μM, Day 8): 33236 | cumulative average cell number ([2]; 5 μM, Day 12): 0 | cumulative average cell number ([2]; 5 μM, Day 16): 0 | proliferation of pre-leukaemic B cell progenitors ([2]; in words, compared to vehicle): inhibited | IC50 ([3]; B-cell, 96 h, Eμ-Myc pre-leukemia pre B cells, 4 days): 0.421 µM | suppression of pre B cell proliferation in cells expressing the cMyc oncogene ([3]; in words): effective in suppression of pre B cell proliferation | cells in G0/G1 (BrdU) (wild type pre-B cells; 1 μM): 54.9 | cells in G2/M (BrdU) (wild type pre-B cells; 1 μM): 5.5 | cells in S (BrdU) (wild type pre-B cells; 1 μM): 32.7 | cells in G0/G1 (wild type pre-B cells; in words): increase in cells in G0/G1 | cells in S-phase (wild type pre-B cells; in words): reduction of cells in S-phase | colony number ([4]; 1 μM, Eμ-Myc pre-leukemia pro-B cells, primary colonies): 104.625 | colony number, secondary colony formation ([4]; 1 μM, Eμ-Myc pre-leukemia pro-B cells, secondary colony formation): 9.75 | proliferation and secondary colony formation of cells expressing the oncogene cMyc ([4]; in words): equally effective in inhibiting proliferation and secondary colony formation | cumulative average cell number (Wild type pre B cells [5]; 1 μM, Day 4): 54333 | cumulative average cell number (Wild type pre B cells [5]; 1 μM, Day 8): 73474 | cumulative average cell number (Wild type pre B cells [5]; 1 μM, Day 12): 15097 | cumulative average cell number (Wild type pre B cells [5]; 5 μM, Day 4): 32555 | cumulative average cell number (Wild type pre B cells [5]; 5 μM, Day 8): 19925 | cumulative average cell number (Wild type pre B cells [5]; 5 μM, Day 12): 0.000 | cumulative average cell number (Wild type pre B cells [5]; 10 μM, Day 4): 26111 | cumulative average cell number (Wild type pre B cells [5]; 10 μM, Day 8): 8192 | cumulative average cell number (Wild type pre B cells [5]; 10 μM, Day 12): 0.000 | proliferation of wild type B cell progenitors (Wild type pre B cells [5]; in words, compared to vehicle): inhibited | Cumulative Cell Counts ([6]; 96 h): 198333.3 | Cumulative Cell Counts ([6]; 336 h): 226600 | Cumulative Cell Counts ([7]; 1 μm, 96 h): 128333.3 | Cumulative Cell Counts ([7]; 1 μm, 336 h): 132000 | Cumulative Cell Counts ([7]; 2.5 μm, 96 h): 141666.7 | Cumulative Cell Counts ([7]; 2.5 μm, 336 h): 94133.33 | Cumulative Cell Counts ([7]; 5 μm, 96 h): 126666.7 | Cumulative Cell Counts ([7]; 5 μm, 336 h): 50940 | cell number in the presence of mutant KRas ([7]; in words): dose dependent decrease in cell number | CDC6 mRNA % control (Cdc6 mRNA): 65.1%
